Here are results for 16 compounds from patent US12162902B2, “Decarboxylase inhibitors for treating Parkinson's disease” (SAIL BIOMEDICINES, priority 2018, dated 2024).

As usually defined, the IC50 is the concentration that inhibits the measured activity by half.

Read-outs that look alike come from different tables or passages of the source. A value given as a limit tells only on which side of the number the result lay.

Experiment [1] addresses Tyrosine decarboxylase (tdc) (Enterococcus faecalis (strain EnGen0310 / MMH594), UniProt P0DTQ4). Nature of the experiment: Inhibition of tyrosine decarboxylase in vitro (dopamine formed from levodopa, LC-MS). It counts as biochemical. The note with it: 60 min preincubation of tdc with inhibitor at room temperature, pH 5.5, 9 mM levodopa, 5 min reaction. As for the experimental part: Tyrosine decarboxylase (tdc) was obtained by following a previously published literature procedure (Science, 14 Jun. 2019: Vol. 364, Issue 6445, eaau6323). Tdc (220 nM final concentration) was thawed on ice and then mixed with pyridoxal-5-phosphate (2.2 mM final concentration) in 200 mM sodium acetate buffer, pH 5.5 optionally containing 1 mM TCEP. To this mixture was added inhibitor at a final concentration of 1000, 333, 111, 37, 12, 4.1, 1.4, or 0 μM (final volume: 100 μL; inhibitor was 100-fold concentrated in a solution of DMSO, H2O, or DMSO:H2O (1/1 v/v)). The protein-inhibitor mixture was incubated at room temperature for 60 min. 6 μL of this mixture was then withdrawn from each solution and mixed with 54 μL of 10 mM levodopa in 200 mM sodium acetate buffer pH 5.5. The final concentration of the reaction was 22 nM tdc, 220 μM pyridoxal-5-phosphate, 9 mM levodopa in 200 mM sodium acetate buffer pH 5.5 with 0-100 μM inhibitor. The reaction was proceeded for 5 min at room temperature before quenching by addition of 540 μL acetonitrile containing 0.1 (v/v) formic acid supplemented with 200 nM tolbutamide as an internal standard. The reactions were centrifuged (3,000 g, 10 min), and then 100 μL of each supernatant was transferred to a fresh plate. 100 μL of acetonitrile containing 0.1% (v/v) formic acid supplemented with 200 nM tolbutamide was added. An external standard curve containing 0-150 μM dopamine was prepared in the exact same manner.
Dopamine formed in each reaction was quantified by using an Agilent 6470 triple quadrupole mass spectrometer equipped with an Acquity UPLC. Mobile phase A consisted of H2O containing 10 mM ammonium formate, pH 3.0 and supplemented with 0.1% (v/v) formic acid. Mobile phase B consisted of acetonitrile containing 10 mM ammonium formate, pH 3.0 and supplemented with 0.1% (v/v) formic acid. 5 μL of each sample was injected onto a BEH Amide column (Waters Corporation, 2.1×50 mm, 1.7 μm). The gradient was set to: 100% mobile phase B at 0 min, decreasing linearly to 65% mobile phase B by 1.5 min, held constant at 65% mobile phase B until 2.5 min, ramped back up to 100% mobile phase B by 2.6 min, and held constant at 100% mobile phase B until 4.2 min. The flow rate was 0.6 mL/min. The dopamine was detected by using the mass spectrometer in multiple reaction monitoring (MRM) mode, quantifying the transition 154.1 to 137.0 m/z in positive mode. The fragmentor setting was 74, the collision energy was 9, and the cell accelerator voltage was 4, and the dwell time was 20. Tolbutamide was monitored using MRM and quantifying the transition of 271.1 to 91.0 m/z in positive mode. The fragmentor setting was 88, the collision energy was 37, and the cell accelerator voltage was 4, and the dwell time was 20.
The amount of dopamine was quantified by normalizing the area to the area of tolbutamide internal standard within each sample. This relative response was then compared to that of the standard curve to obtain the dopamine formed within each sample. The concentration of dopamine formed as a function of the inhibitor concentration at the preincubation stage was plotted in GraphPad Prism 8, and the IC50 was calculated using the non-linear fit for the standard IC50 curve equation “[inhibitor] vs response (three parameters).”

The test system of experiment [2] is Enterococcus faecalis v583. Nature of the experiment: Inhibition of E. faecalis decarboxylation activity in vitro (residual levodopa, LC-MS). It counts as cell-based.
Setting [3] is: Enterococcus faecalis, V583, E. faecalis v583 culture in BHI broth pH 5 with 1.5 mM levodopa, 24 h at 37° C. anaerobic, read-out: IC50 @ 60 min.
[4] abbreviates: E. faecalis v583 culture in BHI broth pH 5 with 1.5 mM levodopa, 24 h at 37° C. anaerobic, read-out: IC50 @ 60 min.

Sequence of Tyrosine decarboxylase (tdc) (P0DTQ4 whole entry): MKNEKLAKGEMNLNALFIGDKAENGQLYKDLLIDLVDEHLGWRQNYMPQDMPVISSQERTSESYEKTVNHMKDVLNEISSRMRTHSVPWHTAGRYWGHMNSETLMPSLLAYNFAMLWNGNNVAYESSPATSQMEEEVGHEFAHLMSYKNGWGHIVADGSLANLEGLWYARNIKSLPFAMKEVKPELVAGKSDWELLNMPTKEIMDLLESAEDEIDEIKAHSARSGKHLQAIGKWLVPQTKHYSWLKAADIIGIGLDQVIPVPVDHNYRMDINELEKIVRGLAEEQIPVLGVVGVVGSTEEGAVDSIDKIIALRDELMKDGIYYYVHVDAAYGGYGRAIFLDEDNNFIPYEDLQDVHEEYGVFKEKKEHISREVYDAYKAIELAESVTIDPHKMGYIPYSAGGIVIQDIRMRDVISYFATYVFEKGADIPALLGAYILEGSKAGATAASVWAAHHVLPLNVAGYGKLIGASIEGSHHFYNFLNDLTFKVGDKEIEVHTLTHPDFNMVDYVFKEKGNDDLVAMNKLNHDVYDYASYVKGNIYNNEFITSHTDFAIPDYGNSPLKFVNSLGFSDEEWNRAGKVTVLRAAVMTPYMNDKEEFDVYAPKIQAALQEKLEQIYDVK

In the case of `Cc1cc(CC(N)(CF)C(=O)O)ccc1O` (stereo not drawn) [Compound N, 2-amino-3-fluoro-2-(4-hydroxy-3-methylbenzyl)propanoic Acid], the IC50 in experiment [1] (read-out: IC50 @ 60 min) is 2.6 µM.

Turning to `CC(=O)NC(C)(Cc1ccc(O)cc1)C(=O)O` (stereo not drawn) [Compound X, 2-acetamido-3-(4-hydroxyphenyl)-2-methylpropanoic Acid], the IC50 in experiment [2] (setting [3]) and in experiment [1] (IC50 @ 60 min) was more than 1000 µM each time.

As for “2-amino-2-(fluoromethyl)-4-(4-hydroxyphenyl)butanoic acid [Compound U]”, in experiment [1] (read-out: IC50 @ 60 min), the IC50 was more than 1000 µM.

For the compound `NC(CF)(Cc1ccc(O)cc1)C(=O)O` (single isomer, unassigned) [T], the IC50 turned out to be 18.5 µM in experiment [2] (setting [4]) and 82.3 µM in experiment [1] (read-out: IC50 @ 60 min).

In the case of `NC(CF)(Cc1ccccc1)C(=O)O` (stereo not drawn) [Compound Z, 2-amino-2-benzyl-3-fluoropropanoic Acid], the IC50 in experiment [2] (setting [3]) and in experiment [1] (IC50 @ 60 min) was more than 1000 µM each time.

With `NC(CF)(Cc1ccc(O)c(Cl)c1)C(=O)O` (stereo not drawn) [Compound L, 2-amino-2-(3-chloro-4-hydroxybenzyl)-3-fluoropropanoic Acid], the IC50 in experiment [1] (read-out: IC50 @ 60 min) was determined as 2.5 µM.

Take `CC(N)(Cc1ccc(O)c(O)c1)C(=O)O` (stereo not drawn) [Compound Q, 2-amino-3-(3,4-dihydroxyphenyl)-2-methylpropanoic Acid]: the IC50 in experiment [2] (setting [3]) and in experiment [1] (IC50 @ 60 min) was more than 1000 µM throughout.

In the case of `CC(=O)NC(CF)(Cc1ccc(O)cc1)C(=O)O` (stereo not drawn) [Compound Y, 2-acetamido-3-fluoro-2-(4-hydroxybenzyl)propanoic acid], the IC50 in experiment [2] (setting [3]) and in experiment [1] (IC50 @ 60 min) was more than 1000 µM in each case.

`Cc1cc(CCN)ccc1O` [Compound P, 4-(2-aminoethyl)-2-methylphenol]: the IC50 in experiment [2] (Enterococcus faecalis, V583, read-out: IC50 @ 60 min) is more than 1000 µM; in experiment [1] (IC50 @ 60 min) it was more than 1000 µM.

For `NC(CF)(Cc1cccc(O)c1)C(=O)O` (stereo not drawn) [Compound R, 2-amino-3-fluoro-2-(3-hydroxybenzyl)propanoic Acid], the IC50 in experiment [2] (setting [3]) is more than 1000 µM. In addition, the “IC50 @ 60 min” value in experiment [1] is on record as “Minor inhibition”.

Consider `NC(CF)(Cc1ccc(O)c(F)c1)C(=O)O` (stereo not drawn) [Compound M, 2-amino-3-fluoro-2-(3-fluoro-4-hydroxybenzyl)propanoic Acid], for which the IC50 in experiment [1] (read-out: IC50 @ 60 min) was determined as 3.2 µM.

For the compound `CCC(N)(Cc1ccc(O)cc1)C(=O)O` (stereo not drawn) [O, 2-amino-2-(4-hydroxybenzyl)butanoic Acid], the IC50 in experiment [2] (setting [3]) and in experiment [1] (IC50 @ 60 min) was more than 1000 µM each time.

As to `COC(=O)NC(C)(Cc1ccc(O)cc1)C(=O)O` (stereo not drawn) [Compound V, 3-(4-hydroxyphenyl)-2-((methoxycarbonyl)amino)-2-methylpropanoic Acid], the IC50 in experiment [2] (setting [3]) and in experiment [1] (IC50 @ 60 min) was more than 1000 µM throughout.

As to `NC(Cc1ccc(O)cc1)(C(=O)O)C(F)F` (stereo not drawn) [Compound K, 2-amino-3,3-difluoro-2-(4-hydroxybenzyl)propanoic Acid], the “IC50 @ 60 min” value in experiment [1] is listed as “Minor inhibition”.

As to `COC(=O)NC(CF)(Cc1ccc(O)cc1)C(=O)O` (stereo not drawn) [Compound W, 3-fluoro-2-(4-hydroxybenzyl)-2-((methoxycarbonyl)amino)-propanoic Acid], the IC50 in experiment [2] (setting [3]) and in experiment [1] (IC50 @ 60 min) was more than 1000 µM in each case.

Consider `NC(CF)(Cc1ccc(O)cc1)C(=O)O` (single isomer, unassigned) [S], for which the values for the IC50 in experiment [2] (setting [4]) and in experiment [1] (read-out: IC50 @ 60 min) were 2 µM and 4 µM, respectively.
